# Source: patent US8741955B2, “D-serine transporter inhibitors as pharmaceutical compositions for the treatment of central nervous system disorders” (Allergan, Inc., priority 2011, dated 2014)
# Key:
# pre-pulse inhibition = pre-pulse inhibition (PPI) and startle response; type: in vivo, rat; settings: D-serine 600 mg/kg, L-4OHPG 15 mg/kg; for effect on the absolute startle response: control experiment
# Protocol: Pre-pulse inhibition was measured using the SR-Lab Startle Response system fitted with a rat enclosure. During the acclimation period, each rat (n=8/group) was habituated with a 5 min interval of 65-dB background noise followed by six 120 dB startle pulses alone, each 40 ms long. This acclimation phase was followed by a 15 min PPI test session where rats were presented with 120 dB startle pulses without a pre-pulse (“pulse alone”) or pulses preceded by a 20 ms pre-pulse of 3, 6, or 12 dB above background noise (“PP3”, “PP6”, or “PP12”, respectively) and ended with five 120 dB startle pulses. PPI was recorded for pre-pulse intensities of 3, 6, and 12 dB, and no stimulus. Each pre-pulse trial was administered in pseudorandom order. The 120 dB pulse alone trials were randomly interspersed within the pre-pulse trials and used for comparison with pre-pulse trials. PPI data were calculated as a percentage of PPI by comparing the pulse-alone versus the PP trials using the formula [100−(response to pre-pulse+120 dB)/(response to 120 dB alone)×100]. Experimenter was masked to treatment during testing and analysis.
# Data were analyzed with a 2-way ANOVA with Condition and Treatment as factors with post hoc Bonferroni comparisons.
# asc-1 = molecular target: T1, asc-1 (Rattus norvegicus, UniProt P63116); experiment: sodium-independent [3H]D-serine transport into rat forebrain synaptosomes; type: biochemical; settings: inhibition of [3H]D-serine transport, rat brain synaptosomes; means of at least two determinations
# T1 construct: from tissue; host or cells: rat forebrain P2 (synaptosome) fraction
# T1 sequence (P63116 1-530): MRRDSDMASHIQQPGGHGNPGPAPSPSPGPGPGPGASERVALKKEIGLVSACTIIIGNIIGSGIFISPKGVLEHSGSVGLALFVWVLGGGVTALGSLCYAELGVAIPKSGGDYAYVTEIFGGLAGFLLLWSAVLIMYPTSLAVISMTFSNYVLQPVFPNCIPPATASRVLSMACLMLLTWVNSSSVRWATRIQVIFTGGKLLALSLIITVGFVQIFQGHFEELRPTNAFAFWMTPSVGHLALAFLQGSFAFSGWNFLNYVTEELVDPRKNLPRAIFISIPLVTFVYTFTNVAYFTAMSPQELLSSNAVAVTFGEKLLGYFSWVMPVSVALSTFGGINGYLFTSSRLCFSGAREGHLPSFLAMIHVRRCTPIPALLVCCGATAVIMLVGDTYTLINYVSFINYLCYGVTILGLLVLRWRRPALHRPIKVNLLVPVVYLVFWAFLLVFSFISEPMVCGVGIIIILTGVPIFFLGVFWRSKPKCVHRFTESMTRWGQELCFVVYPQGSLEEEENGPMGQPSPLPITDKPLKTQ
# T1 sequence (Q794F9 1-527 partner): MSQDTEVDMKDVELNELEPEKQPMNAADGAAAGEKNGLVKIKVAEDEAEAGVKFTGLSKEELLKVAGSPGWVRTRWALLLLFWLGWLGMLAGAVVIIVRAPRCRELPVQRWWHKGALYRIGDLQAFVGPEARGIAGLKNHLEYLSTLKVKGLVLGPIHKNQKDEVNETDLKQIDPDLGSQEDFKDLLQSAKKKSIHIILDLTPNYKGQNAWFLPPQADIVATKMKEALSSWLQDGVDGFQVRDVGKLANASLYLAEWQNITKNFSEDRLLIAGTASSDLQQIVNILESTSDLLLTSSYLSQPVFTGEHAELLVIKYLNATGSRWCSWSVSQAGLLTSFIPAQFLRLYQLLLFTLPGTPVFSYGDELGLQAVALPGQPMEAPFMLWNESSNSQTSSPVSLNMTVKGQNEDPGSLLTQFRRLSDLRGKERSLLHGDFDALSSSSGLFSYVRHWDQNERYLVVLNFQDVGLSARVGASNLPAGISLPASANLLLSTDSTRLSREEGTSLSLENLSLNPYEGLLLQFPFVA
# Protocol: Under the assay conditions used, the sodium-independent transport of D-serine by rodent forebrain synaptosomes is mediated by asc-1 (Rutter et al., 2007), and the sodium-dependent transport of D-serine into astrocytes in culture is mediated by an ASCT transporter, ASCT2 according to the literature (Ribeiro et al., 2002).
# Synaptosome assays: a P2 fraction of rat forebrain was prepared and assayed immediately. Aliquots of the P2 preparation (approx. 1 mg of original tissue weight) were incubated in sodium-free assay buffer (CholineCl: 128 mM, KCl: 3.5 mM; KH2PO4: 1.5 mM; MgCl2: 1 mM; CaCl2: 1 mM; glucose: 10 mM; Tris-acetate buffer: 10 mM, pH7.4) containing [^3H]D-serine (final concentration of 50 nM) and test compounds in duplicate for 4 mins at room temperature. The synaptosomes containing radiolabel were collected by filtration onto Whatman GF/C filters, and washed twice with ice cold assay buffer. Filters were solubilized in scintillation fluid and radioactivity determined in a beta counter. IC50 values were determined as described for the cell-based assays above.
# schizophrenic patients = settings: added on to traditional antipsychotic drugs; Labrie and Roder, 2010; cited from earlier work
SMILES,"effect on PPI (pre-pulse inhibition; PP3, PP6, PP12)",effect on the absolute startle response (pre-pulse inhibition),IC50 (asc-1),efficacy in clinical trials of schizophrenic patients (schizophrenic patients)
N[C@H](C(=O)O)c1ccc(O)cc1 [L-4-hydroxyphenylglycine],"reduced PPI, an effect that reached significance at the PP12 intensity level",neither L-4OHPG nor D-serine had any significant effect,101 µM,
N[C@H](CO)C(=O)O [D-serine],,neither L-4OHPG nor D-serine had any significant effect,9.4 µM,has shown efficacy
